Results reported in article PMC5392334, “Discovery and characterization of a novel irreversible EGFR mutants selective and potent kinase inhibitor CHMFL-EGFR-26 with a distinct binding mode” (Oncotarget, 2017).

Legend:
Test in all cases: KinomeScan
Format in all cases: binding
Conditions in all cases: read-out: % control
AAK1 = molecular target: T1, AAK1 (Homo sapiens, UniProt Q2M2I8)
T1 construct: purchased DiscoveRx KINOMEscan

[1] = molecular target: T2, ABL1(Q252H)-nonphosphorylated (Homo sapiens, UniProt P00519, Q252H)
T2 construct: purchased DiscoveRx KINOMEscan

ACVRL1 = molecular target: T3, ACVRL1 (Homo sapiens, UniProt P37023)
T3 construct: purchased DiscoveRx KINOMEscan

ALK(C1156Y) = molecular target: T4, ALK(C1156Y) (Homo sapiens, UniProt Q9UM73, C1156Y)
T4 construct: purchased DiscoveRx KINOMEscan

AMPK-alpha1 = molecular target: T5, AMPK-alpha1 (Homo sapiens, UniProt Q13131)
T5 construct: purchased DiscoveRx KINOMEscan
T5 sequence (Q13131 whole entry): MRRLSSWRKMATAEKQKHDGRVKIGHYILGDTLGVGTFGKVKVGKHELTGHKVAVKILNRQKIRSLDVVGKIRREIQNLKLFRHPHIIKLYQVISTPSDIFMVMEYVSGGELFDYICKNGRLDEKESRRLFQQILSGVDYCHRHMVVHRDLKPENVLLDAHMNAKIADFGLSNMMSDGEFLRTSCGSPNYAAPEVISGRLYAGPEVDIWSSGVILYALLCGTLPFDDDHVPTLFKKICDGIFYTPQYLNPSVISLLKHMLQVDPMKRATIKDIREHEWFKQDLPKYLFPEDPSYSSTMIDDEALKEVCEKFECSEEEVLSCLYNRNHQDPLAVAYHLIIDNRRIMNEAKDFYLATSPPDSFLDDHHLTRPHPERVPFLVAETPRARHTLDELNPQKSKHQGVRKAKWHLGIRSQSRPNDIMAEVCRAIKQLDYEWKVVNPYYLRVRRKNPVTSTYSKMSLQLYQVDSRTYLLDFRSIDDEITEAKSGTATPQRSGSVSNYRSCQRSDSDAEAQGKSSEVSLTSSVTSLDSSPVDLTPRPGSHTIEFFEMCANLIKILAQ

BRSK1 = molecular target: T6, BRSK1 (Homo sapiens, UniProt Q8TDC3)
T6 construct: purchased DiscoveRx KINOMEscan

BRSK2 = molecular target: T7, BRSK2 (Homo sapiens, UniProt Q8IWQ3)
T7 construct: purchased DiscoveRx KINOMEscan

DCAMKL3 = molecular target: T8, DCAMKL3 (Homo sapiens, UniProt Q9C098)
T8 construct: purchased DiscoveRx KINOMEscan

EGFR(G719C) = molecular target: T9, EGFR(G719C) (Homo sapiens, UniProt P00533, G719C)
T9 construct: purchased DiscoveRx KINOMEscan

[2] = molecular target: T10, EGFR(L747-E749del, A750P) (Homo sapiens, UniProt P00533, A750P/DEL747-749)
T10 construct: purchased DiscoveRx KINOMEscan

EPHA1 = molecular target: T11, EPHA1 (Homo sapiens, UniProt P21709)
T11 construct: purchased DiscoveRx KINOMEscan
T11 sequence (P21709 26-976): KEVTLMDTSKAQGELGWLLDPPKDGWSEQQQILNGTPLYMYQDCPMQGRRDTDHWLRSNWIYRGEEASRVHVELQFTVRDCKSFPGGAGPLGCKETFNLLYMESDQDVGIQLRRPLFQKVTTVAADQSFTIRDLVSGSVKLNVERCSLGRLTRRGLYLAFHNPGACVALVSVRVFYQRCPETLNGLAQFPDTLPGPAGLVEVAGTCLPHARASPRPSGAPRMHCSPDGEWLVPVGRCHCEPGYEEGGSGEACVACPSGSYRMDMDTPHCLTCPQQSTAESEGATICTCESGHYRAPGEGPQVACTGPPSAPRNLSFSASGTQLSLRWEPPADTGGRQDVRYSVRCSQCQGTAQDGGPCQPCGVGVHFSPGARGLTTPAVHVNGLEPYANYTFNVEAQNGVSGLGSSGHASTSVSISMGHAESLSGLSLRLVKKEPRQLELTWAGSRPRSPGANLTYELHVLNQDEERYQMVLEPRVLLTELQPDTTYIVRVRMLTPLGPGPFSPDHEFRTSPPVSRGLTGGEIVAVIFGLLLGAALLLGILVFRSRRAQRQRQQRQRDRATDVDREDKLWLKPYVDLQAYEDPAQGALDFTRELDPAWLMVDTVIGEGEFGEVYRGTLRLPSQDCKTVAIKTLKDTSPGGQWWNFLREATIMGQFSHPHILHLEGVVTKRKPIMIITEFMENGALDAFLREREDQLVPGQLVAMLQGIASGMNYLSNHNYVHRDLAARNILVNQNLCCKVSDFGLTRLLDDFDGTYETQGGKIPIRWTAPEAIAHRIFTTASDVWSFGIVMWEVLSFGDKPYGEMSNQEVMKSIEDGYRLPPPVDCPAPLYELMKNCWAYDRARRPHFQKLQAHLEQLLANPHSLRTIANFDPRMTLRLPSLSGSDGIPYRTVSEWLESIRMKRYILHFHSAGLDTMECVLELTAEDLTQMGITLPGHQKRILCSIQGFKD

EPHA5 = molecular target: T12, EPHA5 (Homo sapiens, UniProt P54756)
T12 construct: purchased DiscoveRx KINOMEscan

EPHA6 = molecular target: T13, EPHA6 (Homo sapiens, UniProt Q9UF33)
T13 construct: purchased DiscoveRx KINOMEscan

FLT1 = molecular target: T14, FLT1 (Homo sapiens, UniProt P17948)
T14 construct: purchased DiscoveRx KINOMEscan

FLT3(R834Q) = molecular target: T15, FLT3(R834Q) (Homo sapiens, UniProt P36888, R834Q)
T15 construct: purchased DiscoveRx KINOMEscan

GRK2 = molecular target: T16, GRK2 (Homo sapiens, UniProt P25098)
T16 construct: purchased DiscoveRx KINOMEscan

GRK3 = molecular target: T17, GRK3 (Homo sapiens, UniProt P35626)
T17 construct: purchased DiscoveRx KINOMEscan

GRK4 = molecular target: T18, GRK4 (Homo sapiens, UniProt P32298)
T18 construct: purchased DiscoveRx KINOMEscan

ITK = molecular target: T19, ITK (Homo sapiens, UniProt Q08881)
T19 construct: purchased DiscoveRx KINOMEscan

[3] = molecular target: T20, JAK2(JH1domain-catalytic) (Homo sapiens, UniProt O60674)
T20 construct: JAK2(JH1domain-catalytic); purchased DiscoveRx KINOMEscan
T20 sequence (O60674 849-1132 limits assumed): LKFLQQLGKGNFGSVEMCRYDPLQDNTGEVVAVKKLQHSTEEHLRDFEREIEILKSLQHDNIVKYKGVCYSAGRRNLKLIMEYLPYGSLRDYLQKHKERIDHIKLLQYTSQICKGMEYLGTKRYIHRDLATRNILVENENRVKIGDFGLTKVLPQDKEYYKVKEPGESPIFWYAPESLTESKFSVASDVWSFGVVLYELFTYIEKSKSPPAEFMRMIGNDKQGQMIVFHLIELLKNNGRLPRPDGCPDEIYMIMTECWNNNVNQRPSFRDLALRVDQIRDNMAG

LATS1 = molecular target: T21, LATS1 (Homo sapiens, UniProt O95835)
T21 construct: purchased DiscoveRx KINOMEscan

LIMK1 = molecular target: T22, LIMK1 (Homo sapiens, UniProt P53667)
T22 construct: purchased DiscoveRx KINOMEscan
T22 sequence (P53667 whole entry): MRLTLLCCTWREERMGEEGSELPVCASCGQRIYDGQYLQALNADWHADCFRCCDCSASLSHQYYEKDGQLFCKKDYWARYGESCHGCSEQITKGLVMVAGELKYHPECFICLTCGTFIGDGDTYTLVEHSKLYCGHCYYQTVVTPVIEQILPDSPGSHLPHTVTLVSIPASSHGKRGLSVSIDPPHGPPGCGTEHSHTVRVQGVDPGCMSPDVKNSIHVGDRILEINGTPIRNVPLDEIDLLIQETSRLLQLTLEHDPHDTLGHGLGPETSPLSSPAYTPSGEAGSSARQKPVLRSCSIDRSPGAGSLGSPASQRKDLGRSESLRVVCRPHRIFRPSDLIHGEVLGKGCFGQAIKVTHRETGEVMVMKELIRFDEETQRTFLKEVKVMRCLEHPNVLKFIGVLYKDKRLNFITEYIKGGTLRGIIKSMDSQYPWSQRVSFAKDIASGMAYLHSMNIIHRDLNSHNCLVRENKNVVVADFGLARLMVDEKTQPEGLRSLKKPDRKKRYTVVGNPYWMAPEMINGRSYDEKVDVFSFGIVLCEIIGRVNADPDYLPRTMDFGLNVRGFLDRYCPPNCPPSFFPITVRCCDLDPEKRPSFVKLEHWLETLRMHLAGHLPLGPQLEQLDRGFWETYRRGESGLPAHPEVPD

MAP3K2 = molecular target: T23, MAP3K2 (Homo sapiens, UniProt Q9Y2U5)
T23 construct: purchased DiscoveRx KINOMEscan

MAPKAPK5 = molecular target: T24, MAPKAPK5 (Homo sapiens, UniProt Q8IW41)
T24 construct: purchased DiscoveRx KINOMEscan

MARK1 = molecular target: T25, MARK1 (Homo sapiens, UniProt Q9P0L2)
T25 construct: purchased DiscoveRx KINOMEscan

MEK2 = molecular target: T26, MEK2 (Homo sapiens, UniProt P36507)
T26 construct: purchased DiscoveRx KINOMEscan
T26 sequence (P36507 whole entry): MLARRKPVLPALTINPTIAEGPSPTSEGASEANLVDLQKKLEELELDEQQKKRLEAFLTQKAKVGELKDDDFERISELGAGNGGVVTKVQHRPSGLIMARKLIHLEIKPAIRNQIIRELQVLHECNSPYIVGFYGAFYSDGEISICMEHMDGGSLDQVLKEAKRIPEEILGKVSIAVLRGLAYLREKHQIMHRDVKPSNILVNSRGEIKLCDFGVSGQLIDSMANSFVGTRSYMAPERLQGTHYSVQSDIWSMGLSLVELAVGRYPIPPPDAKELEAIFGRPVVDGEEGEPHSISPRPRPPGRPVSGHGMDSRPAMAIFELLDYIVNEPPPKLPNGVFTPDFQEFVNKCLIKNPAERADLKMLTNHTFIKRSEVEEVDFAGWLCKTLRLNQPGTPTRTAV

MEK6 = molecular target: T27, MEK6 (Homo sapiens, UniProt P52564)
T27 construct: purchased DiscoveRx KINOMEscan

MET = molecular target: T28, MET (Homo sapiens, UniProt P08581)
T28 construct: purchased DiscoveRx KINOMEscan

MET(Y1235D) = molecular target: T29, MET(Y1235D) (Homo sapiens, UniProt P08581, Y1235D)
T29 construct: purchased DiscoveRx KINOMEscan
T29 sequence (P08581 25-1390 Y1235D): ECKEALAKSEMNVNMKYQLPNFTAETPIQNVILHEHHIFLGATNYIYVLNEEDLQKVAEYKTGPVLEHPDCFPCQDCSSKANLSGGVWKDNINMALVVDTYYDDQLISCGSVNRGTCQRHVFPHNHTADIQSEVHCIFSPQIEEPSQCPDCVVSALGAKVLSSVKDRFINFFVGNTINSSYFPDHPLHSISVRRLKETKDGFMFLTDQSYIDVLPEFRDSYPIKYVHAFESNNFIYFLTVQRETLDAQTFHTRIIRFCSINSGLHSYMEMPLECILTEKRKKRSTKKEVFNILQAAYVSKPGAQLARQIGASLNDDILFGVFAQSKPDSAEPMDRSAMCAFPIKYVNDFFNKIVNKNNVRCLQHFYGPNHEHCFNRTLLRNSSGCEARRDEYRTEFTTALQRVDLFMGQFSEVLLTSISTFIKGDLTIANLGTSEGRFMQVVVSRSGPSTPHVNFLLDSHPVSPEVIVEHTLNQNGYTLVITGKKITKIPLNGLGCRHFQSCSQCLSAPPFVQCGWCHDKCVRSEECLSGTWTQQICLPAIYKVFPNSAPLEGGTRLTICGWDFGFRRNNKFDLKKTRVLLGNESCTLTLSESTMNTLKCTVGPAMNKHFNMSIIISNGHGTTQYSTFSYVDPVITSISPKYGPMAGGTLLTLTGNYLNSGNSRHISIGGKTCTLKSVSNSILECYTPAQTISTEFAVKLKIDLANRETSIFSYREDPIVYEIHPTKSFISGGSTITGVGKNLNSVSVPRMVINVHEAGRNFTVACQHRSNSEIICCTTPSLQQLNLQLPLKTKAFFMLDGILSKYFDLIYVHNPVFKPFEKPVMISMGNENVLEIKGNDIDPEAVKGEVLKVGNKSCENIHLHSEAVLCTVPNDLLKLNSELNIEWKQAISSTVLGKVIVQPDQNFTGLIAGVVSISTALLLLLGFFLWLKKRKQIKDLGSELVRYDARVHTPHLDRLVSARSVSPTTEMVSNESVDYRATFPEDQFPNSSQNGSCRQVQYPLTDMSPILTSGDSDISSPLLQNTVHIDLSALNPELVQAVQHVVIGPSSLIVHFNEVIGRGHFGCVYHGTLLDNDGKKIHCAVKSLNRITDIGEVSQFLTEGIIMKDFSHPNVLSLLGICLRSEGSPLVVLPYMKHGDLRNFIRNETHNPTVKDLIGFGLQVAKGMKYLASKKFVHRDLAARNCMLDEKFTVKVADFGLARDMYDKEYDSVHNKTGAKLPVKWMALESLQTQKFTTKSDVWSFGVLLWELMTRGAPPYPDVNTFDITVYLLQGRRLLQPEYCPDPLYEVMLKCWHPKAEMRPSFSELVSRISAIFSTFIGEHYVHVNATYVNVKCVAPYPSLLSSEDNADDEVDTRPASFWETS

MST4 = molecular target: T30, MST4 (Homo sapiens, UniProt Q9P289)
T30 construct: purchased DiscoveRx KINOMEscan

NEK6 = molecular target: T31, NEK6 (Homo sapiens, UniProt Q9HC98)
T31 construct: purchased DiscoveRx KINOMEscan

p38-delta = molecular target: T32, p38-delta (Homo sapiens, UniProt O15264)
T32 construct: purchased DiscoveRx KINOMEscan

PIK3C2B = molecular target: T33, PIK3C2B (Homo sapiens, UniProt O00750)
T33 construct: purchased DiscoveRx KINOMEscan

PIK3CA(H1047L) = molecular target: T34, PIK3CA(H1047L) (Homo sapiens, UniProt P42336, H1047L)
T34 construct: purchased DiscoveRx KINOMEscan

PIKFYVE = molecular target: T35, PIKFYVE (Homo sapiens, UniProt Q9Y2I7)
T35 construct: purchased DiscoveRx KINOMEscan

PKMYT1 = molecular target: T36, PKMYT1 (Homo sapiens, UniProt Q99640)
T36 construct: purchased DiscoveRx KINOMEscan

PLK3 = molecular target: T37, PLK3 (Homo sapiens, UniProt Q9H4B4)
T37 construct: purchased DiscoveRx KINOMEscan

PYK2 = molecular target: T38, PYK2 (Homo sapiens, UniProt Q14289)
T38 construct: purchased DiscoveRx KINOMEscan

RIOK2 = molecular target: T39, RIOK2 (Homo sapiens, UniProt Q9BVS4)
T39 construct: purchased DiscoveRx KINOMEscan
T39 sequence (Q9BVS4 whole entry): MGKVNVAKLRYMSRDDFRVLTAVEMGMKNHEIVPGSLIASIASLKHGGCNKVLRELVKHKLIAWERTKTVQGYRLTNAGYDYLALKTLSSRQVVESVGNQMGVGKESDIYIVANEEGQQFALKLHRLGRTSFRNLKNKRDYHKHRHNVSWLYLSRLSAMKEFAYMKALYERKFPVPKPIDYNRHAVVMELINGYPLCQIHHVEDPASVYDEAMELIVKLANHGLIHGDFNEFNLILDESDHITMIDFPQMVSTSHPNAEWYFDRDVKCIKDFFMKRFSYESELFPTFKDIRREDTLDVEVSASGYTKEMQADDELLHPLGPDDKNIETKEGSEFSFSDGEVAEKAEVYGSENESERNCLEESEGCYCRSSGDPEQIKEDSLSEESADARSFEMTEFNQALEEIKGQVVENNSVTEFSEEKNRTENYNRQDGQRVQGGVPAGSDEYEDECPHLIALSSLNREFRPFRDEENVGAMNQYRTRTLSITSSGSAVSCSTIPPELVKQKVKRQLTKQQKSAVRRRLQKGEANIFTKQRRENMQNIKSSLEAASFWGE

SNRK = molecular target: T40, SNRK (Homo sapiens, UniProt Q9NRH2)
T40 construct: purchased DiscoveRx KINOMEscan

SRMS = molecular target: T41, SRMS (Homo sapiens, UniProt Q9H3Y6)
T41 construct: purchased DiscoveRx KINOMEscan

TNIK = molecular target: T42, TNIK (Homo sapiens, UniProt Q9UKE5)
T42 construct: purchased DiscoveRx KINOMEscan

WNK2 = molecular target: T43, WNK2 (Homo sapiens, UniProt Q9Y3S1)
T43 construct: purchased DiscoveRx KINOMEscan

Molecule `C=CC(=O)N1CCC[C@@H](n2nc(-c3ccc(OCc4cccc(C)n4)c(Cl)c3)c3c(N)ncnc32)C1` [CHMFL-EGFR-26] has a remaining binding at 1 µM (AAK1) of 96%, a remaining binding at 1 µM [1] of 100% and a remaining binding at 1 µM (ACVRL1) of 100%. It also gave a remaining binding at 1 µM (ALK(C1156Y)) of 100%, a remaining binding at 1 µM (AMPK-alpha1) of 79% and a remaining binding at 1 µM (BRSK1) of 93%. For the same molecule, the remaining binding at 1 µM (BRSK2) was 97%, the remaining binding at 1 µM (DCAMKL3) was 100% and the remaining binding at 1 µM (EGFR(G719C)) was 16%. The remaining binding at 1 µM [2] was 10%, the remaining binding at 1 µM (EPHA1) was 42% and the remaining binding at 1 µM (EPHA5) was 100%. For the same molecule, the remaining binding at 1 µM (EPHA6) was 97%, the remaining binding at 1 µM (FLT1) was 93% and the remaining binding at 1 µM (FLT3(R834Q)) was 100%. For the same molecule, the remaining binding at 1 µM (GRK2) was 99%, the remaining binding at 1 µM (GRK3) was 100% and the remaining binding at 1 µM (GRK4) was 88%. For the same molecule, the remaining binding at 1 µM (ITK) was 96%, the remaining binding at 1 µM [3] was 95% and the remaining binding at 1 µM (LATS1) was 82%. The remaining binding at 1 µM (LIMK1) was 99%, the remaining binding at 1 µM (MAP3K2) was 52% and the remaining binding at 1 µM (MAPKAPK5) was 100%. It also gave a remaining binding at 1 µM (MARK1) of 100%, a remaining binding at 1 µM (MEK2) of 1.1% and a remaining binding at 1 µM (MEK6) of 95%. It also gave a remaining binding at 1 µM (MET) of 96%, a remaining binding at 1 µM (MET(Y1235D)) of 55% and a remaining binding at 1 µM (MST4) of 99%. It also gave a remaining binding at 1 µM (NEK6) of 100%, a remaining binding at 1 µM (p38-delta) of 83% and a remaining binding at 1 µM (PIK3C2B) of 100%. For the same molecule, the remaining binding at 1 µM (PIK3CA(H1047L)) was 81%, the remaining binding at 1 µM (PIKFYVE) was 75% and the remaining binding at 1 µM (PKMYT1) was 92%. For the same molecule, the remaining binding at 1 µM (PLK3) was 85%, the remaining binding at 1 µM (PYK2) was 55% and the remaining binding at 1 µM (RIOK2) was 100%. It also gave a remaining binding at 1 µM (SNRK) of 100%, a remaining binding at 1 µM (SRMS) of 11% and a remaining binding at 1 µM (TNIK) of 11%. It also gave a remaining binding at 1 µM (WNK2) of 92%.
